Assay results from US7862642B2, “Extended-release urea-based granular fertilizer” (Georgia-Pacific Chemicals LLC, priority 2006, dated 2011).
Where two headings read alike, the source gives them in different places.

Tested on: Kentucky bluegrass (Poa pratenis L.) turf stand
Details: visual scale 1-9 (1=no burn or discoloration, 6=moderate, 9=severe), 3 replications; for Mean Phytotoxicity Score DAT 3: 3 days after treatment; for Mean Phytotoxicity Score DAT 5: 5 days after treatment; for Mean Phytotoxicity Score DAT 13: 13 days after treatment; for Mean Phytotoxicity Score DAT 20: 20 days after treatment
Text: SGN is defined as the median particle size (in millimeters), i.e., 50% of the particles (by weight) have a particle size above and below this number. The respective fertilizers were applied to a Kentucky bluegrass (Poa pratenis L.) turf stand at the Hancock Turfgrass Research Center on the campus of Michigan State University.
The experimental design was a randomized complete block design with 3 replications. Fertilizer treatments were applied at rates of 1, 2, and 6 lbs. Nitrogen/1000 ft^2. Treatments were applied with a hand shaker container over a 12 ft^2 area. Irrigation (0.25″ water) was not applied until 3 days after treatment application. Visual ratings were conducted on a scale 1-9 with 1=no burn or discoloration, 6=moderate burn or discoloration, and 9=severe burn or discoloration.

**Q.** Which results are given for NC(N)=O [UREA, urea]?
**A.** Mean Phytotoxicity Score DAT 3 (1 lb N/1000 ft^2): 1; Mean Phytotoxicity Score DAT 5 (1 lb N/1000 ft^2): 1; Mean Phytotoxicity Score DAT 13 (1 lb N/1000 ft^2): 1; Mean Phytotoxicity Score DAT 20 (1 lb N/1000 ft^2): 1; Mean Phytotoxicity Score DAT 3 (2 lb N/1000 ft^2): 2.3; Mean Phytotoxicity Score DAT 5 (2 lb N/1000 ft^2): 3.7; Mean Phytotoxicity Score DAT 13 (2 lb N/1000 ft^2): 2.3; Mean Phytotoxicity Score DAT 20 (2 lb N/1000 ft^2): 1; Mean Phytotoxicity Score DAT 3 (6 lb N/1000 ft^2): 7.7; Mean Phytotoxicity Score DAT 5 (6 lb N/1000 ft^2): 8.2; Mean Phytotoxicity Score DAT 13 (6 lb N/1000 ft^2): 7.7; Mean Phytotoxicity Score DAT 20 (6 lb N/1000 ft^2): 4.0
